These results are taken from patent US8975250B2, “5 oxo-5,8-dihydropyrido[2,3-d]pyrimidine derivatives as CaMKII kinase inhibitors for treating cardiovascular diseases” (SANOFI, priority 2010, dated 2015).

The assay addresses CaMKIIδ (Homo sapiens (Human), UniProt Q13557). The experiment in a line: radioactive test on the recombinant CaMKIIδ enzyme (ATP-γ33P incorporation into Autocamtide-2). The following applies: recombinant CaMKIIδ 0.37 nM, 10 μM ATP, 100 μM Autocamtide-2, two hours at 37°C. In kind it is biochemical. As to the method:
The compounds according to the invention were tested in vitro for their capacity to inhibit the kinase function of calcium/calmodulin-dependent protein kinase II delta (CaMKIIδ). CaMKIIδis an intracellular serine/threonine kinase. It has an enzymatic domain that is capable of using ATP to autophosphorylate. Its kinase function allows it to use ATP to phosphorylate its substrates on the serines and/or threonines. Several enzymatic and cellular tests are used to evaluate the activity of the products with respect to the kinase function of CaMKIIδ. The kinase activity of CaMKIIδis evaluated by means of a radioactive test on the recombinant CaMKIIδenzyme. The amount of ATP-γ33P incorporated into the specific substrate Autocamtide-2 during its phosphorylation by CaMKIIδis measured. The effect of the products is quantified by the concentration of product that inhibits the total activity of CaMKIIδby 50% (50% inhibitory concentration=IC50). For the determination of the IC50 values, the product is diluted in 100% of DMSO to obtain a 10 mM stock solution. The concentration range tested during the radioactive test ranges from 3 to 10 000 nM with a final concentration in the test of 1% DMSO. This concentration range may, for the most powerful compounds, be extended to 0.1 nM. On the day of the operation, 5 μl of the compounds are deposited in each well of a 96-well plate at 10 times the concentration of that to be tested. Each concentration is tested in duplicate on the same plate. The negative controls (0% activity) and positive controls (100% activity) receive 5 μL of 10% DMSO solution. A reaction premix containing the 1×kinase buffer and an ATP-MgCl2 mixture is prepared. Extemporaneously, a mixture containing the substrate Autocamtide-2 (100 μM) with calmodulin and calcium, and the solution of enzyme CaMKIIδ, is added to the premix. 45 μL of this mixture are immediately deposited per well. The final concentrations in the 50 μL final volume are as follows: compound 1X, 0.37 nM of CaMKIIδ(Invitrogen reference PV3373), 10 μM of ATP (1 μCi per well), 100 μM of Autocamtide-2, […] of calmodulin, 15 mM MgCl2, 400 μM CaCl2, 10 mM β-glycerophosphate, and 1% of DMSO. Two negative controls are prepared on each plate, a first without enzyme CaMKIIδ, and a second without substrate Autocamtide-2; these two elements are replaced with water. The plate is then incubated for two hours at 37°C. with gentle shaking. The reaction is stopped by adding 20 μL per well of H3PO4 solution. The 50 μL of each well are transferred onto a Whatman P81 filter. After rinsing twice with H3PO4 (150 μl/well per wash), followed by two rinses with 150 μL of H2O, 50 μL of scintillant are added per well. The amount of phosphorylated substrate is detected by means of a liquid scintillation counter. The inhibitory activity toward CaMKIIδis given by the concentration that inhibits 50% of the activity of CaMKIIδ. The IC50 values are generally between 10 μM and 10^−5 μM. In the table below, the IC50 values measured for several compounds (I) of the invention are presented as examples.

A word on the IC50: it is the concentration that inhibits the measured activity by half. Regarding `CCn1c(N)c(C(N)=O)c(=O)c2cnc(Nc3ccc4c(c3)CCNC4)nc21` [compound 75, 7-Amino-8-ethyl-5-oxo-2-(1,2,3,4-tetrahydroisoquinolin-6-ylamino)-5,8-dihydropyrido[2,3-d]pyrimidine-6-carboxamide], the half-inhibitory concentration (IC50) amounted to 37 nM. `CCn1c(N)c(C(N)=O)c(=O)c2cnc(Nc3ccc(OC4CCN(C)CC4)cc3)nc21` [compound 76, 7-Amino-8-ethyl-2-[4-(1-methylpiperid-4-yloxy)phenylamino]-5-oxo-5,8-dihydropyrido[2,3-d]pyrimidine-6-carboxamide]: the IC50 came to 118 nM. Turning to `CCn1c(N)c(C(N)=O)c(=O)c2cnc(Nc3cccc(CN(C)C)c3)nc21` [compound 78, 7-Amino-2-(3-dimethylaminomethylphenylamino)-8-ethyl-5-oxo-5,8-dihydropyrido[2,3-d]pyrimidine-6-carboxamide], the IC50 was 268 nM. As to `CCc1cc(N2CCN(C3CC3)CC2)ccc1Nc1ncc2c(=O)c(C(N)=O)c(N)n(CC)c2n1` [compound 96, 7-Amino-2-[4-(4-cyclopropylpiperazin-1-yl)-2-ethylphenylamino]-8-ethyl-5-oxo-5,8-dihydropyrido[2,3-d]pyrimidine-6-carboxamide], the IC50 was 396 nM.
